{
  "source": "patent US7928089B2",
  "about": "“Mucoactive agents for treating a pulmonary disease” (Vectura Limited, priority 2003, dated 2011)",
  "experiment": "Stage 1 heparin dose-response: CF sputum viscoelasticity by magnetic microrheometry",
  "design": "species or system human",
  "settings": "30 minutes at 37°, 10 rad/s, 10 CF sputum samples; FIG. 3; NAL 309 mcg/mL",
  "experimental": "An experimental programme was conducted to test the mucolytic activity of selected mucoactive agents. The primary objective of this initial protocol is to determine the mucolytic activity (capacity to reduce the viscosity and elasticity and thereby affect clearability) of heparin in cystic fibrosis sputum at concentrations of potential clinical relevance. This constitutes the Stage 1 experiment, below. The secondary objective is to compare heparin with other heparin fractions in a screening test for activity, incorporated in the Stage 2 experiment. […]\nThe magnetic microrheometer was described by King (King M (1988) “Magnetic microtheometer” Methods in Bronchial Mucology, pp. 73-83.). This instrument is used to measure the bulk viscosity and elasticity of microliter quantities of mucus. […]\nWhen interpreting the results of the studies discussed herein, the primary variable of interest is the decrease in mucus viscoelasticity, expressed as delta log G* (corrected for vehicle treatment). […]\nFrom each of 10 CF sputum samples, up to 6 aliquots of approximately 10-15 mg each were incubated for 30 minutes at 37° with either 0.9% NaCl or with one of the concentrations of heparin, or with N-acetylcysteine L-lysinate (NAL) (309 mcg/mL). Prior to incubation and following it, sputum viscoelasticity at 10 rad/s was determined by magnetic microrheometry. […]",
  "data": [
    {"substance": "N-acetylcysteine L-lysinate [NAL]", "values": [
      {"measurement": "mucolytic effect (fractional decrease in G*)", "result": "effective at a lower concentration compared to heparin"}
    ]}
  ]
}
